Results reported in ChEMBL document CHEMBL1201862, “PubChem BioAssay data set” (2004).
The source made the active and inactive calls.

Tests used:
Cytochrome P450 2C19 = Cytochrome P450 2C19 (Homo sapiens, UniProt P33261); assay: Cytochrome panel assay with activity outcomes. Panel member name: p450-cyp2c19 Compounds with AC50 equal or less than 10 uM are considered active; type: functional
Cytochrome P450 2D6 = Cytochrome P450 2D6 (Homo sapiens, UniProt P10635);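 note: CYP2D6 member of a cytochrome P450 panel assay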
[1] = target: T1, RNA-binding protein pos-1 (Caenorhabditis elegans, UniProt G5EF15); assay: inhibitors of POS-1/mex-3 RNA binding, dose response, biochemical, fluorescence polarization (AID 1964);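 note: purified POS-1 fused to maltose binding protein made in E. coli; potency of compounds blocking POS-1 binding to fluorescent RNA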
T1 sequence (G5EF15 whole entry): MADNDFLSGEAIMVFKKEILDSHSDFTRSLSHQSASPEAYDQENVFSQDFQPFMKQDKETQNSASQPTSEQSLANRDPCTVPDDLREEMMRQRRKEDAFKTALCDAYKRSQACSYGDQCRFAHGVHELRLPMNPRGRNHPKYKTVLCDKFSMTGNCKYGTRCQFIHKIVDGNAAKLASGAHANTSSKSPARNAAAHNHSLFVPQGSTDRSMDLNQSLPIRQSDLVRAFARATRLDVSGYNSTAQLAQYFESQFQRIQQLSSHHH

[2] = target: Intestinal-type alkaline phosphatase (Mus musculus, UniProt P24822); assay: PubChem AID 488874; type: functional
[3] = target: T2, Intestinal-type alkaline phosphatase (Homo sapiens, UniProt P09923); assay: human intestinal alkaline phosphatase activators, dose response, biochemical, luminescence, uHTS hits (AID 463120); type: functional
[4] = target: T3, Alkaline phosphatase, tissue-nonspecific isozyme (Homo sapiens, UniProt P05186); assay: TNAP enzyme activators, dose response, selectivity assay for human IAP activator project, biochemical, TNAP isozyme, human IAP uHTS hits (AID 488886); type: functional;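 note: potency of compounds raising TNAP activity as a selectivity check on IAP activators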
T3 sequence (P05186 whole entry): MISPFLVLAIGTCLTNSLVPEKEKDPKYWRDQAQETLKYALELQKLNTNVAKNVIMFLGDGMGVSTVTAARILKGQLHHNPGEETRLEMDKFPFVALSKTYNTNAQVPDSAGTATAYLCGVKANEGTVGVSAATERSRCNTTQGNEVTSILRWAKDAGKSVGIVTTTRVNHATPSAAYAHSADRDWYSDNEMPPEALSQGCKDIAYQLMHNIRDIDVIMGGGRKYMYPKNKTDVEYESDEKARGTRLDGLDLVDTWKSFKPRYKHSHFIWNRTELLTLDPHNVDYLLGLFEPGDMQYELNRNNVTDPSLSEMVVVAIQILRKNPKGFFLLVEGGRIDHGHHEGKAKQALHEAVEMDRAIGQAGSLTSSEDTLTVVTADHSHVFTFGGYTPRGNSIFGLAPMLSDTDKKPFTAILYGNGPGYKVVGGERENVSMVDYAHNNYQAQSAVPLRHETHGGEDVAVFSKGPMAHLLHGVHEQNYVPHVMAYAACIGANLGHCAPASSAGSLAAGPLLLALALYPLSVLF

[5] = target: T2, Intestinal-type alkaline phosphatase; assay: human IAP activators, dose response, biochemical, luminescent, uHTS hits, set 2 (AID 488817); type: functional;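 note: potency of activators that raise enzyme activity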
[6] = target: T4, Zinc finger protein mex-5 (Caenorhabditis elegans, UniProt Q9XUB2); assay: MEX-5/TCR-2 RNA interaction inhibitors, dose response, biochemical, C. elegans, fluorescence polarization (AID 1960)
T4 sequence (Q9XUB2 whole entry): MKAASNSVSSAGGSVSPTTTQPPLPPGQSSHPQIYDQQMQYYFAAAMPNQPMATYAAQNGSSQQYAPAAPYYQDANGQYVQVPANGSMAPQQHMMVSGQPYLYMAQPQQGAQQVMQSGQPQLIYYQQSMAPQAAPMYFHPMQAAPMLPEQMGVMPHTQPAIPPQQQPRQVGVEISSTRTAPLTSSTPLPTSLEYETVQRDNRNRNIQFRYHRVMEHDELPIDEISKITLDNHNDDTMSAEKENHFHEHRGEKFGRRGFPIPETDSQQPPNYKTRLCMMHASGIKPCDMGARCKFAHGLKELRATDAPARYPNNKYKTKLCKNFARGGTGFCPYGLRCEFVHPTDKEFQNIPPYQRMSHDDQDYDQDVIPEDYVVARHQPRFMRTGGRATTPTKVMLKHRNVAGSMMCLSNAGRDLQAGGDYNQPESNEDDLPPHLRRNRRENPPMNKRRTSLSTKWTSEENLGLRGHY

Streptococcus = assay: Group A Streptococcus viability loss, dose response, counter-screen for streptokinase expression inhibitor project, luminescence, BacTiterGlo (AID 1915); type: functional, organism-based;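 note: potency for reduction of bacterial viability or growth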
[7] = target: T5, Mannose-6-phosphate isomerase (Homo sapiens, UniProt P34949); assay: PMI enzyme inhibitors, confirmation, biochemical, fluorescence intensity (AID 1535)
T5 sequence (P34949 whole entry): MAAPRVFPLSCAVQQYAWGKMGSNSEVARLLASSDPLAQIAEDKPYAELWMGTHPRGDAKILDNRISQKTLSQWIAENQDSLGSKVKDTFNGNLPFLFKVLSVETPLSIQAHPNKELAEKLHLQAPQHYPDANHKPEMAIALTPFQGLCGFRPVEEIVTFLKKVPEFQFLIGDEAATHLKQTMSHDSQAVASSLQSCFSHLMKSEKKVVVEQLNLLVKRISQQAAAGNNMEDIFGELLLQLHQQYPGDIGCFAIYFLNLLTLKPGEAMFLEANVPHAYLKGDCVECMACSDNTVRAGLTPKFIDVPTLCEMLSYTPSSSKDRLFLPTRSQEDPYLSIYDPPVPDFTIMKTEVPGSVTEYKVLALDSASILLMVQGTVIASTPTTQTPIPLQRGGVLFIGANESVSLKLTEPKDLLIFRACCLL

[8] = THP-1 cell cytotoxicity, dose response, cytotoxicity control for non-replicating M. tuberculosis project (AID 489025); type: functional
[9] = target: T6, Polyadenylate-binding protein 1 (Homo sapiens, UniProt P11940); assay: PABP1 MLLE–PAM2 binding inhibitor potency, dose response, biochemical, fluorescence polarization, FITC-PAM2 peptide (AID 602259); type: functional; settings: read-out: IC50_Mean
[10] = Fluorescence-based cell-based high throughput dose response assay for inhibitors of the interaction of nucleotide-binding oligomerization domain containing 2 (NOD2) and the receptor-interacting serine-threonine kinase 2 (RIPK2).; type: functional; settings: Homo sapiens
[11] = growth suppression of beta-catenin-knockout colon cells, dose response, cell-based, HCT116, human colon tumor (AID 1045); type: functional;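 note: HCT116 colon tumor cells with beta catenin knocked out; cells exposed to compound for 60 hours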
[12] = test system: Streptococcus sp. 'group A'; assay: growth inhibition of control SK(-) GAS strain, dose response, counter-screen for streptokinase expression inhibitor project, luminescence, kanamycin, BacTiterGlo, confirmation (AID 1900); type: functional, organism-based
[13] = target: Phosphoethanolamine/phosphocholine phosphatase (Homo sapiens, UniProt Q8TCT1); assay: SAR assay for compounds that inhibit PHOSPHO1. [Related pubchem assays (depositor defined):AID1545, AID1565, AID1574]
[14] = Vero E6 cell cytotoxicity, dose response, cytotoxicity control for non-replicating M. tuberculosis project, secondary assay (AID 492998); type: functional, VeroE6; settings: Vero C1008
cells = type: functional
[15] = inhibitors of intracellular T. cruzi replication, confirmation, NIH3T3 host cells, beta-gal luminescence (AID 2044); type: functional, cell-based;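 note: intracellular parasites grown in NIH/3T3 mouse fibroblasts as host cells; luminescent beta-galactosidase reporter signal from transgenic T. cruzi replicating inside host cells; inhibitors lower the luminescence signal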
[16] = target: Eukaryotic translation initiation factor 4E (Mus musculus, UniProt P63073); assay: eIF4E–eIF4G protein interaction inhibitors, dose response, biochemical, TR-FRET (AID 855); type: functional;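 note: potency for disrupting eIF4E binding to eIF4GI seen as loss of FRET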
Hexokinase = Hexokinase (Trypanosoma brucei, UniProt Q38C41); assay: Confirmation assay for inhibitors of Trypanosoma brucei hexokinase 1-Analogue-first series. [Related pubchem assays (depositor defined):AID1430, AID1632, AID2516, AID2560, AID2579, AID2600, AID449725, AID492951]; type: functional
[17] = target: DNA dC->dU-editing enzyme APOBEC-3A (Homo sapiens, UniProt P31941); assay: APOBEC3A DNA deaminase inhibitors, dose response, biochemical (AID 504722); type: functional
[18] = target: DNA dC->dU-editing enzyme APOBEC-3G (Homo sapiens, UniProt Q9HC16); assay: Dose Response confirmation of small molecule APOBEC3G DNA Deaminase Inhibitors via a fluorescence-based single-stranded DNA deaminase assay. [Related pubchem assays (depositor defined):AID493012, AID493028]; type: functional
Beta Lactamase = Beta Lactamase (Pseudomonas aeruginosa, UniProt Q932Y6); assay: beta-lactamase reporter inhibitor potency, dose response, artefact control for NOD2-RIPK2 interaction inhibitor project, BLA reporter cells, FRET fluorescence (AID 651552); type: functional, cell-based
[19] = growth suppression of PTEN-null colon cells, dose response, cell-based, HCT116 PTEN knockout (AID 1047); type: functional;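 note: HCT116 colon tumor cells with PTEN knocked out; cells exposed to compound for 60 hours before readout; potency for loss of cell viability measured by luminescence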
[20] = target: Glucose-6-phosphate 1-dehydrogenase (Homo sapiens, UniProt P11413); assay: human G6PD enzyme inhibitors, dose response, selectivity assay for P. falciparum G6PD inhibitor project, biochemical, fluorescence (AID 504792); type: functional
[21] = target: Heat shock protein HSP 90-alpha (Homo sapiens, UniProt P07900); type: functional, organism-based
[22] = target: T5, Mannose-6-phosphate isomerase; assay: Confirmation of compounds inhibiting phosphomannose isomerase (PMI) via a fluorescence intensity assay using a high concentration of mannose 6-phosphate. [Related pubchem assays (depositor defined):AID1209, AID1220, AID1545, AID1553, AID1620]
Streptokinase A = target: T7, Streptokinase A (Streptococcus pyogenes serotype M1, UniProt P10520); assay: S. pyogenes streptokinase expression inhibitors, potency, dose response, plasminogen activation absorbance, OD405 (AID 1914); type: functional, Streptococcus pyogenes M1 GAS;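 note: secreted streptokinase activity via plasminogen activation per viability signal from cell pellet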
T7 sequence (P10520 whole entry): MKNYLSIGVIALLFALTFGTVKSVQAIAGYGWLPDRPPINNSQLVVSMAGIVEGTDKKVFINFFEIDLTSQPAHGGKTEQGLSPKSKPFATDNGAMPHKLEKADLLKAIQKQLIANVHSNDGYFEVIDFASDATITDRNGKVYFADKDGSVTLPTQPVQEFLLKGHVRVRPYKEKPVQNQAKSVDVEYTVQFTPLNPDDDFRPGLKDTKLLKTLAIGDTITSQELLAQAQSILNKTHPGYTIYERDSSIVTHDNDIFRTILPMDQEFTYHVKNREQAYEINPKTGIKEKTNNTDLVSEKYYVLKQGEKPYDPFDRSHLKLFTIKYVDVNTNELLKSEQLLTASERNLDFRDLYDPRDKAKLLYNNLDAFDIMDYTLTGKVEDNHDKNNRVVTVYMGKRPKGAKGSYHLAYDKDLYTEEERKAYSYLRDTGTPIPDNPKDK

[23] = target: T8, Mitochondrial peptide methionine sulfoxide reductase (Bos taurus, UniProt P54149); assay: Absorbance-based biochemical high throughput dose response assay for activators of Methionine sulfoxide reductase A (MsrA).; type: functional
T8 sequence (P54149 whole entry): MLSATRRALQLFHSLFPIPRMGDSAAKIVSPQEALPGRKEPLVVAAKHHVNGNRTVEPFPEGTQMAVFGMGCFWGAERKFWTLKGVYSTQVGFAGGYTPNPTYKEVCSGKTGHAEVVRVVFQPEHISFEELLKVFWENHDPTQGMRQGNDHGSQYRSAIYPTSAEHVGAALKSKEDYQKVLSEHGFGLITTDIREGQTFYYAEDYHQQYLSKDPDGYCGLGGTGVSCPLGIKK

[24] = target: T6, Polyadenylate-binding protein 1; assay: PABP1 MLLE–PAM2 interaction inhibitors, dose response, miRNA deadenylation inhibitor project, biochemical, fluorescence polarization, Cy5-PAM2 peptide, secondary (AID 602260); type: functional; settings: read-out: IC50_Mean

T2 sequence (P09923 whole entry): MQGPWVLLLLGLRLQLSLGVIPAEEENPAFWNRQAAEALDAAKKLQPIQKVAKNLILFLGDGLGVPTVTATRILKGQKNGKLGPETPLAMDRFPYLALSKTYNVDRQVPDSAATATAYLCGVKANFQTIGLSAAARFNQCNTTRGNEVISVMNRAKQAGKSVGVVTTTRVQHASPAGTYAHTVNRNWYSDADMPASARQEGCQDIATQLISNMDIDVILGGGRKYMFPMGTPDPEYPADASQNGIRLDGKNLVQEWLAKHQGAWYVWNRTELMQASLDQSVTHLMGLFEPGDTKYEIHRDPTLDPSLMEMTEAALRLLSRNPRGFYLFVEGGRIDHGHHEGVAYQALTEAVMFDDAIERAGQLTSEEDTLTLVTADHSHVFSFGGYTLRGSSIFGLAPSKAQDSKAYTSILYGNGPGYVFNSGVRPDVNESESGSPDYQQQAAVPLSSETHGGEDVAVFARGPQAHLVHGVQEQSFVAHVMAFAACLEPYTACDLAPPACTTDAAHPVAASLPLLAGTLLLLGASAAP
T6 sequence (P11940 whole entry, the tested form may be a part): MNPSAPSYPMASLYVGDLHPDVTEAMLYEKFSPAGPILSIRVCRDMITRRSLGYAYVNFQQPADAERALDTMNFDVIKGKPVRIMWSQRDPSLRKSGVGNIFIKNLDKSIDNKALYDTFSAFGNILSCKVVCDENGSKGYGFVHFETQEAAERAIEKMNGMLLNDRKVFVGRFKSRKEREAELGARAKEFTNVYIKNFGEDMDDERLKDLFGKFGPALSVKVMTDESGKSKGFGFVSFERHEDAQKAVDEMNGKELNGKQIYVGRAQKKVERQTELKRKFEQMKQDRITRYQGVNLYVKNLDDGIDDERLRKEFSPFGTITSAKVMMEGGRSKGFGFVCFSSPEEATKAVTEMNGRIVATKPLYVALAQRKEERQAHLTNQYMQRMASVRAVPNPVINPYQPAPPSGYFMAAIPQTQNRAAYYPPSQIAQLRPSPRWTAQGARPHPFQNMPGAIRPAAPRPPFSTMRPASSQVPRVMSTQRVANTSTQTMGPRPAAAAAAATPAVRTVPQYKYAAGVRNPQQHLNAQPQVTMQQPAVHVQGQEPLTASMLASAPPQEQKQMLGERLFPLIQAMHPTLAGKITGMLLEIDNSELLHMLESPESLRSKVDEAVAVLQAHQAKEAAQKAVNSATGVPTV
Sequence of Eukaryotic translation initiation factor 4E (P63073 whole entry): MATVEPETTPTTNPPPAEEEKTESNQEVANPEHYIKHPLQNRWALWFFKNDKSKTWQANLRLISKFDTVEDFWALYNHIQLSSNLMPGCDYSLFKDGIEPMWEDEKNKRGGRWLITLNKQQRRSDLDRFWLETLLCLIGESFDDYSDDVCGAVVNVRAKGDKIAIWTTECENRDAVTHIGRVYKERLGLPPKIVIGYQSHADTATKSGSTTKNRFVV
Sequence of Cytochrome P450 2D6 (P10635 whole entry, the tested form may be a part): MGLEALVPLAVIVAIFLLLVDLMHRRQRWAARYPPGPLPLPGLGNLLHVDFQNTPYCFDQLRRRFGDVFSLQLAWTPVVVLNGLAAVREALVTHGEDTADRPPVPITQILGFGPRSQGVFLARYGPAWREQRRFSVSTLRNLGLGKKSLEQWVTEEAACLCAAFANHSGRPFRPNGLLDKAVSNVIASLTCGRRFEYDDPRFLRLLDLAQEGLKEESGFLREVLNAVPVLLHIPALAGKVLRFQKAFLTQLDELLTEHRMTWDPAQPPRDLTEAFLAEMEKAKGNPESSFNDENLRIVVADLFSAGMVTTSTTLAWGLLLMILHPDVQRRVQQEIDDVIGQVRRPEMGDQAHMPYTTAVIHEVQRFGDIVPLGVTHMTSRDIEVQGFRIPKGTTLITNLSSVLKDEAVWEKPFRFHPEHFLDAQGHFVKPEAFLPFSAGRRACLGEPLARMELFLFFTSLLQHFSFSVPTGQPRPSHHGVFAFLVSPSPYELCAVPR
Sequence of Phosphoethanolamine/phosphocholine phosphatase (Q8TCT1 whole entry): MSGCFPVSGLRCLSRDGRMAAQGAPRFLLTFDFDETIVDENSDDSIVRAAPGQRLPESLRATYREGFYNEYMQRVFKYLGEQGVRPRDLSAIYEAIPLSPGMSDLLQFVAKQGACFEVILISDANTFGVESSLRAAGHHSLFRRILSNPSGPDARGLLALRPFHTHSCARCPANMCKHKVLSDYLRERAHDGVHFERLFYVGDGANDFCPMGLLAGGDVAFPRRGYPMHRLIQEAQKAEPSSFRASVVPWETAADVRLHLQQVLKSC
Sequence of Intestinal-type alkaline phosphatase (Mus musculus, UniProt P24822) (P24822 whole entry): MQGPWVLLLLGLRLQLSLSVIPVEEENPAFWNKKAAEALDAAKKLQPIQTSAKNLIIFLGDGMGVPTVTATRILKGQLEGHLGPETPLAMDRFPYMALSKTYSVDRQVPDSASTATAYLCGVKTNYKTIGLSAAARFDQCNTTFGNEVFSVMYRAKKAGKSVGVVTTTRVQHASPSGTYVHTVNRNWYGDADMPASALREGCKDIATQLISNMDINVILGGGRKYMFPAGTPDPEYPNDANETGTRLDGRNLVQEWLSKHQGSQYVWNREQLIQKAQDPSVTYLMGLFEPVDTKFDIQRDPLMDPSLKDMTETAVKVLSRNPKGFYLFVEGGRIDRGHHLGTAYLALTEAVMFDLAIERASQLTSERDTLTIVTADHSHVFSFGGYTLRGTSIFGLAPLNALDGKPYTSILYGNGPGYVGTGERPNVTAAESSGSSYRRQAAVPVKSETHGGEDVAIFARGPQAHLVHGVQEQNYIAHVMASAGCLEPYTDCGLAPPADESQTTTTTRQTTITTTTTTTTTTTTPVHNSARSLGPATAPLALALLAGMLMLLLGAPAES
Sequence of DNA dC->dU-editing enzyme APOBEC-3A (P31941 whole entry): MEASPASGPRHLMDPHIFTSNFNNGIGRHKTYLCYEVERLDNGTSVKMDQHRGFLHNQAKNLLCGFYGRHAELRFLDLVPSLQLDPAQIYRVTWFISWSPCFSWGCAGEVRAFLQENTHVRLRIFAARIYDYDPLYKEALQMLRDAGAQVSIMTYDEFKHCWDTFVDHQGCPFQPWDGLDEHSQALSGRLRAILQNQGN
Sequence of Glucose-6-phosphate 1-dehydrogenase (P11413 whole entry): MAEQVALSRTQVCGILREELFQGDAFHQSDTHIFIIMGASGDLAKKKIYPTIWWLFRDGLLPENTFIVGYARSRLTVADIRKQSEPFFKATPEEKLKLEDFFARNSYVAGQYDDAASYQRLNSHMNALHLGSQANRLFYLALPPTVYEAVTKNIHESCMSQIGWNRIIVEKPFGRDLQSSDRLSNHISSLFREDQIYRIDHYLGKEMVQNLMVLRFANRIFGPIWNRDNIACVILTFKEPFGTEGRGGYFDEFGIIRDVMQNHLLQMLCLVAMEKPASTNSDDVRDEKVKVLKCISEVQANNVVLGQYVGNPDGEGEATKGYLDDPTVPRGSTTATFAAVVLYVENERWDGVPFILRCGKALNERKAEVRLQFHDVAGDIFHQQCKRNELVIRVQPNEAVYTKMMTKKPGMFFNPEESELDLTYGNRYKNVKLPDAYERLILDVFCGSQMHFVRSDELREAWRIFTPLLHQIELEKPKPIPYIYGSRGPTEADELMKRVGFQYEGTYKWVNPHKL
Sequence of Beta Lactamase (Q932Y6 whole entry): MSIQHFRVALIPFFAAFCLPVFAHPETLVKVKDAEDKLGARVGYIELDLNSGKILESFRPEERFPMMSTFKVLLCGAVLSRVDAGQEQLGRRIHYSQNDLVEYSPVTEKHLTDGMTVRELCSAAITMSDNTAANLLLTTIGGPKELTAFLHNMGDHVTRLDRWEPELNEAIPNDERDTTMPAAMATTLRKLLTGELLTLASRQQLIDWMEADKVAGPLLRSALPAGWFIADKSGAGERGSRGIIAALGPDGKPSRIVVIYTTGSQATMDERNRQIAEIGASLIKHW
Sequence of Cytochrome P450 2C19 (P33261 whole entry): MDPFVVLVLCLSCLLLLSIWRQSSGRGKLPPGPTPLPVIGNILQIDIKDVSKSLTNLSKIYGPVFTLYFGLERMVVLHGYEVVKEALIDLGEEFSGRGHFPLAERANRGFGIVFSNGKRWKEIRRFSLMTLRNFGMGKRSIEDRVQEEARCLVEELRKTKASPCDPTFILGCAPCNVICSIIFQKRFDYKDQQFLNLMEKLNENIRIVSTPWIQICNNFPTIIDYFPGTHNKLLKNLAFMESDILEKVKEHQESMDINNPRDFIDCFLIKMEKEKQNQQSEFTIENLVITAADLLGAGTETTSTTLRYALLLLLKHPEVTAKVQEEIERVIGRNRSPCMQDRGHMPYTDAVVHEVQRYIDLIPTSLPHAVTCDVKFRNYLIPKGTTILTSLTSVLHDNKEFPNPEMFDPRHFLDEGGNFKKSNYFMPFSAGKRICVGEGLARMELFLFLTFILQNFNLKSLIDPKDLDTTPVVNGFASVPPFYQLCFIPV
Sequence of Hexokinase (Q38C41 whole entry): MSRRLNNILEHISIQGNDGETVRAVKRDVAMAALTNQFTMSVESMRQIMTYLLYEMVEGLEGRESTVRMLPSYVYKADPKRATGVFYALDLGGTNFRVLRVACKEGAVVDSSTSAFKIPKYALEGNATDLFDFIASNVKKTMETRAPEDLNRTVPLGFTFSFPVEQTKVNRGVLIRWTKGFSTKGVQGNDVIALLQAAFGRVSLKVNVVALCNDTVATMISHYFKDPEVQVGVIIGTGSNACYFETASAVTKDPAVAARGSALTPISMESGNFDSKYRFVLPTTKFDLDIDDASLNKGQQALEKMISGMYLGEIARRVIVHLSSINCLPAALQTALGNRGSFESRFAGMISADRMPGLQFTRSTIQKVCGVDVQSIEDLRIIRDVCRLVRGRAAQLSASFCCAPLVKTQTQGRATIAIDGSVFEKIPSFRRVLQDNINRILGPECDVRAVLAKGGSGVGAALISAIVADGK

For `Cc1ccc(Cl)cc1-n1c(=O)cc(N2CC(C)OC(C)C2)[nH]c1=O` (stereo unspecified), the AC50 (Cytochrome P450 2C19) was “inconclusive” and the AC50 (Cytochrome P450 2D6) was “inconclusive”.

With `CCOC(=O)c1cnc(-n2nc(C)cc2C)nc1NNc1nc(C)cc(C)n1` the EC50 [1] was 65.5 µM (active), the IC50 [2] was 66 µM (active) and the EC50 [3] was 8.43 µM (active). The EC50 [4] was 21.4 µM (active), the EC50 [5] was 21.3 µM (active) and the EC50 [6] was > 300 µM (inconclusive).

For `O=c1c2ccccc2sn1-c1ccccc1`, the EC50 (Streptococcus) was 4.17 µM (active), the IC50 [7] was 6.65 µM (active) and the CC50 [8] was 10.9 µM (active). For the same molecule, the IC50 [9] was > 66 µM (inactive), the IC50 [10] was 4 µM (active) and the EC50 [11] was 22.6 µM (active). The EC50 [12] was 888 nM (active), the IC50 [13] was 941 nM (active) and the CC50 [14] was 13.4 µM (active). The IC50 (cells) was 15.7 µM (active), the EC50 [15] was 227 nM (active) and the IC50 [16] was 20.1 µM (active). For the same molecule, the IC50 (Hexokinase) was 1.11 µM (active), the IC50 [17] was > 100 µM (inactive) and the IC50 [18] was 6.4 µM (active). For the same molecule, the IC50 (Beta Lactamase) was 16.6 µM (inactive), the EC50 [19] was 41.1 µM (active) and the IC50 [20] was 8.87 µM (active). For the same molecule, the AC50 [21] was 18.7 µM (active), the IC50 [22] was 21 µM (active) and the EC50 (Streptokinase A) was > 150 µM (not active). For the same molecule, the EC50 [23] was 79.3 µM (inactive) and the IC50 [24] was > 66 µM (inactive).
